Laboratory results: patent US20050107356A1, “Combination of a CB1 receptor antagonist and of a product which activates dopaminergic neurotransmission in the brain, the pharmaceutical compositions comprising them and their use in the treatment of parkinson's disease” (Aventis Pharma S.A., priority 2001, published 2005)
Marks after values point to notes of the source that are not given here.

Tests used:
Assay type in all cases: in vivo
[1] = system: Reserpine-treated rats; test: Reserpine-induced akinesia in the rat, locomotor activity; CB1 antagonist i.p. co-administered with quinpirole (D2 dopaminergic agonist); details: CB1 antagonist 1.5 mg/kg i.p., locomotor activity recorded 1 hour
Method: (§1) The synergistic effect of the combination of one or more products which activate dopaminergic neurotransmission in the brain and of one or more CB1 antagonists in the treatment of Parkinson's disease was determined in a model of akinesia induced by reserpine in the rat according to the following protocol:
(§2) Male Sprague-Dawley rats were treated with reserpine administered subcutaneously at a dose of 3 mg/kg (1 ml/kg) in order to induce akinesia in the animal. 18 hours after this treatment, the locomotor activity of these animals was measured and recorded using an automatic system (Videotrack, France). The locomotion, expressed in centimeters, is estimated by a mean overall distance covered during this period (n=11-38 rats per group). The statistical analysis is carried out by a variance analysis and a post-hoc comparison (if appropriate) using a Mann-Whitney or Dunnett test. A significant effect is recorded for p<0.05.
(§3) The results for the ip administration of the CB1 antagonists (Table 1) are expressed as percentage of increase with respect to the activity of quinpirole and as percentage of decrease with respect to the activity of a very strong dose of levodopa.
The combination of a CB1 receptor antagonist and of a D2 dopaminergic agonist (quinpirole) is produced in the following way: […]

[2] = system: Reserpine-treated rats; test: Reserpine-induced akinesia in the rat, locomotor activity; CB1 antagonist i.p. co-administered with a strong dose of levodopa + benserazide (dyskinesia model); details: CB1 antagonist 3 mg/kg i.p., levodopa + benserazide 50 mg/kg, recorded 2.5 hours
Method: as §1, §2, §3
The combination of a CB1 receptor antagonist and of a strong dose of levodopa (dyskinesia model) is produced in the following way: […]

[3] = system: Reserpine-treated rats; test: Reserpine-induced akinesia in the rat, locomotor activity; CB1 antagonist po one hour before quinpirole (D2 dopaminergic agonist); details: recorded 1 hour
Method: as §1, §2
(§4) The studies by the oral route are carried out in a hydrophobic formulation solvent Labrafil/Labrasol (40/60%, w/w). These products are administered (in a volume of 1 ml/kg) one hour before the dopaminergic agonist. The recording of the locomotor activity begins 5 min after the intraperitoneal injection of the dopaminergic agonist and lasts 1 hour. The D1 dopaminergic agonist is 0.3 mg/kg C1-APB. The D2 dopaminergic agonist is 0.1 mg/kg quinpirole.

[4] = system: Reserpine-treated rats; test: Reserpine-induced akinesia in the rat, locomotor activity; CB1 antagonist po one hour before C1-APB (SKF 82958, D1 dopaminergic agonist); details: recorded 1 hour
Method: as §1, §2, §4

## CS(=O)(=O)C(=C1CN(C(c2ccc(Cl)cc2)c2ccc(Cl)cc2)C1)c1cc(F)cc(F)c1 [Example 1, 1-[bis(4-chlorophenyl)methyl]-3-[(3,5-difluorophenyl)(methylsulfonyl)methylene]azetidine]
[1]
  Combination with quinpirole (62.5 μg/kg ip): percentage of increase with respect to the activity of quinpirole: +125%***
[2]
  Combination with levodopa (120 mg/kg ip): percentage of decrease with respect to the activity of a very strong dose of levodopa: −42%*
[3]; CB1 antagonist 1 mg/kg po
  Combination with quinpirole (0.1 mg/kg ip): percentage of increase with respect to the activity of quinpirole: +33% NS
[3]; CB1 antagonist 3 mg/kg po
  Combination with quinpirole (0.1 mg/kg ip): percentage of increase with respect to the activity of quinpirole: +58%**
[3]; CB1 antagonist 10 mg/kg po
  Combination with quinpirole (0.1 mg/kg ip): percentage of increase with respect to the activity of quinpirole: +23% NS
[4]; CB1 antagonist 1 mg/kg po
  Combination with C1-APB (0.3 mg/kg ip): percentage of decrease with respect to the activity of a strong dose of C1-APB: −33% NS
[4]; CB1 antagonist 3 mg/kg po
  Combination with C1-APB (0.3 mg/kg ip): percentage of decrease with respect to the activity of a strong dose of C1-APB: −67%**
[4]; CB1 antagonist 10 mg/kg po
  Combination with C1-APB (0.3 mg/kg ip): percentage of decrease with respect to the activity of a strong dose of C1-APB: −62%**
